Holding throughout (format): in vivo
The subject of one data set is Oulema oryzae. Description: Reference Test Example 12 Pest control test of Oulema oryzae (topical application). Conditions: throughput of 0.5 μg/head; adults; forty eight hours after the treatment. As for the experimental part:
1 μL(/head) of a drug solution of the compound of Formula (I) prepared at a predetermined concentration with acetone was topically applied and treated to the back of adults collected outdoors by a micro syringe. After the drug treatment, the adults were transferred to rice seedlings and left to stand in a thermostatic chamber at 25° C. so as to obtain 5 heads per stem. […] Test in duplicate. Mortality of adults (%)={number of dead adults/(number of survived adults+number of dead adults)}×100

Data set [1] deals with Trigonotylus caelestialium. In words: Reference Test Example 10 Pest control test of Trigonotylus caelestialium (dipping treatment). Particulars: 72 h. How it is done:
After an air drying process, the wheat seedling leaves and stems were placed into a glass tube, and two second instar larvae of Trigonotylus coelestialium were released to the same glass tube. After the larvae were released, the tube was lidded to leave the larvae to stand in a thermostatic chamber at 25° C. In order to supply water to the wheat during the test, water was given to the wheat from the bottom of the glass tube. […] Test in triplicate.

The test system of a further data set is Laodelphax striatella. Description: Reference Test Example 4 Pest control test of Laodelphax striatella (foliar treatment, single agent). Conditions: Laodelphax striatellus, 72 h. An excerpt: (§1) After an air drying process, second instar larvae were released thereto. […] Test in duplicate.
In the next data set the test system is Nephotettix cincticeps. In words: Reference Test Example 7 Pest control test of Nephotettix cincticeps (foliar treatment, single agent). Conditions: 96 h.
Excerpt: as §1

Another data set relates to Plautia crossota stali. Description: Reference Test Example 11 Pest control test of Plautia crossota stali (sprayed young apple fruit). Conditions: foliar, 144 h. The source says: After an air drying process, the young fruit was placed into a plastic cup, and two adults of Plautia crossota stali were released thereto. […] Mortality of adults (%)={number of dead adults/(number of survived adults+number of dead adults)}×100

Data set [2] deals with Frankliniella occidentalis. In words: Reference Test Example 9 Pest control test of Frankliniella occidentalis (foliar treatment, single agent). Particulars: 72 h.
Protocol: After an air drying process, first instar larvae were released to the leaf disk. Thereafter, the larvae were left to stand in a thermostatic chamber (16 hours of light period-8 hours of dark period) at 25° C. […] Test in duplicate. Mortality of larvae (%)={number of dead larvae/(number of survived larvae+number of dead larvae)}×100
A further data set relates to Sogatella furcifera. In words: Reference Test Example 6 Pest control test of Sogatella furcifera (foliar treatment, single agent). Conditions: 96 h.
Excerpt: as §1

Data set [3] has as its system Nilaparvata lugens susceptible species (highly susceptible to imidacloprid). Description: Reference Test Example 19 Pest control test of Nilaparvata lugens, imidacloprid susceptible species (soil drench). Particulars: for Insecticidal effects against Nilaparvata lugens (death rate %), Susceptible population: soil drench, six days. As for the experimental part: Three days after the treatment, ten second instar larvae of Nilaparvata lugens, which had been collected outdoors and proliferated indoors, were each released to the rice seedling. […] Test in duplicate.
Furthermore, for comparison, the test against a species of Nilaparvata lugens which is highly susceptible to imidacloprid was performed by the same method as described above, and the results thereof are shown in Table 45. […] Meanwhile, the death rates of imidacloprid at 0.05 mg/seedling were (susceptible species) 100%, (resistant population I) 38% and (resistant population II) 69%, and the insecticidal effect thereof was also low even at a high dose. From the above results, it became obvious that Compound P212 and Compound 1-20 have high insecticidal effects even against Nilaparvata lugens resistance against imidacloprid.
Further, for the origin of test pests, bugs collected outdoors from the Kumamoto prefecture (I) in 2007 and from the Fukuoka prefecture (II) in 2005 as resistant population of Nilaparvata lugens, and bugs collected from the Kagoshima prefecture and then successively reared indoors for a long time as the imidacloprid susceptible population of Nilaparvata lugens were used.

`O=C(N=c1ccccn1Cc1ccc(Cl)nc1)C(F)(F)F` [Compound P212, N-[1-((6-chloropyridin-3-yl)methyl)pyridin-2(1H)-ylidene]-2,2,2-trifluoroacetamide] yielded a mortality in the data set on Oulema oryzae not below 80%. Further, the mortality at 50 ppm in data set [1] is not below 80%; with Plautia crossota stali it was not below 60%. Besides, the mortality at 100 ppm with Laodelphax striatella, with Nephotettix cincticeps and in the data set with Sogatella furcifera was not below 80% throughout. In data set [2], this molecule yielded a mortality at 500 ppm not below 80%. Moreover, the “death rates of larvae” value in data set [3] (susceptible species, 0.005 mg/seedling, six days after the release) came out at 100%. The “Insecticidal effects against Nilaparvata lugens (death rate %), Susceptible population” value in data set [3] (throughput 0.005 mg/seedling) and in data set [3] (throughput 0.05 mg/seedling) was 100% in each case.

By mortality is commonly meant the share of the test organisms that died.

(Values after US11771086B2, “Pest control composition including novel iminopyridine derivative” (priority 2012, dated 2023).)
